Read-outs that look alike come from different tables or passages of the source. One block for each substance: values may come before it. No end group written: not given here.
Columns and labels:
β-Klotho = molecular target: T1, β-Klotho (Homo sapiens, UniProt Q86Z14); test: AlphaScreen competition binding assay (inhibition of β-Klotho binding to biotinylated FGF19 or FGF21); conditions: Suppl Fig S6A, 20 nM β-Klotho ECD 6×His, 40 nM biotinylated human FGF21, d.n.c. = did not converge
T1 construct: the ECD of human β-Klotho (aa1–992) fused with a 6 × His tag at the C-terminus; made in house
T1 sequence (Q86Z14 1-992): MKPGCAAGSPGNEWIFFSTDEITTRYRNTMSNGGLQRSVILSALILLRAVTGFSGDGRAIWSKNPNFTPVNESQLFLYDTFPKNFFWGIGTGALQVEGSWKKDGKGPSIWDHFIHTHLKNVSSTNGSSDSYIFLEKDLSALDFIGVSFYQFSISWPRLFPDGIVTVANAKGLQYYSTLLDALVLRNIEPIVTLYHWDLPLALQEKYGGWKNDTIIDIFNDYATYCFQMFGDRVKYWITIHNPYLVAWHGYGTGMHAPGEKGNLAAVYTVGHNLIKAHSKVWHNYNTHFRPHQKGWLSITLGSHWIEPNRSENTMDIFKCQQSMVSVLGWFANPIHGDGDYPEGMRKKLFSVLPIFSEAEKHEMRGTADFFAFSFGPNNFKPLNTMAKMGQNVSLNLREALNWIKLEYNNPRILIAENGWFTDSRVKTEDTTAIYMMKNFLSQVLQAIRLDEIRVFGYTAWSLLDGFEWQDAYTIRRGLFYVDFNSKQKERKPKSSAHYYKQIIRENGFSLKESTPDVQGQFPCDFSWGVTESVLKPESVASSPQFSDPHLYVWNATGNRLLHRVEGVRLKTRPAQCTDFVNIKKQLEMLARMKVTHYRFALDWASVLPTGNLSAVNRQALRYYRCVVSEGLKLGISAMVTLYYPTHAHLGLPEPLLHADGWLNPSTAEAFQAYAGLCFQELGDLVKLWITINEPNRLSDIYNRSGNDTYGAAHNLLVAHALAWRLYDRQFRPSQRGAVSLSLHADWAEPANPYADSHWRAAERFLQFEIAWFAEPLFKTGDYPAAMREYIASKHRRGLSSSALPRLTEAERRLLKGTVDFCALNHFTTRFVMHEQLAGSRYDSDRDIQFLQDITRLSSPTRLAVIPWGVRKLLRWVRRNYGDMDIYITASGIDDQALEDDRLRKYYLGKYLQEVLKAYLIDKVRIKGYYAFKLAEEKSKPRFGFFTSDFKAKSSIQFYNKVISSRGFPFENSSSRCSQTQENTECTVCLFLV
Description: FGF19 and FGF21 C-terminal WT and mutant peptides were custom synthesized and purified (>95% purity) (LifeTein LLC, South Plainfield, NJ). Binding of FGF19 and FGF21 peptides to β-Klotho was assessed using an AlphaScreen® assay. Briefly, 20 nM of β-Klotho ECD 6 × His, varying amounts of FGF19 and 21 peptides, and 40 nM of biotinylated human FGF19 or FGF21 protein were prepared in AlphaLISA universal buffer (PerkinElmer) and added to individual wells in 384-well white opaque plates (Greiner Bio-One). Subsequently, streptavidin donor beads and nickel chelate (Ni-NTA) acceptor beads (AlphaScreen Histidine detection kit; PerkinElmer) were diluted to 40 µg/mL and added to the plates. Total reaction volume was 8 µL. Plates were incubated for 3 hours at room temperature protected from light and read on the EnVision Multilabel Plate Reader (PerkinElmer) according to the manufacturer’s instructions. Assays were performed in triplicate. IC50 values were determined from a three-parameter logistic regression model with the least squares fit using GraphPad Prism version 7.

[1] = test system: FGFR (expressed endogenously in HEK293T reporter cells); test: Elk1-luciferase reporter assay in HEK293T reporter cells without β-Klotho (no KLB); format: cell-based, human; conditions: d.n.c = did not converge
Description: To measure the signaling activity of β-Klotho mutants, ELK luciferase assay was performed in HEK293T cells that were stably transfected with reporter constructs containing 5 × UAS upstream of luciferase and Gal4 DNA-binding domain fused to ELK1. Briefly, HEK293T reporter cells were maintained in DMEM supplemented with 10% (v/v) FBS (Gibco) and 2 mM GlutaMax (Gibco) in a 37 °C incubator with 5% CO2. Cells were plated on 96-well plates in growth medium and incubated overnight. […] Cells were serum-starved in DMEM supplemented with 5% (v/v) FBS (Gibco) and 2 mM GlutaMax (Gibco) overnight the day after transfection and treated with FGF21 for 6 hours at 37 °C with 5% CO2, after which the cells were lysed in Bright-Glo luciferase reagent (Promega). Luciferase activity was measured in relative luminescence units on the EnVision Multilabel Plate Reader (PerkinElmer) according to the manufacturer’s instructions. All assays were performed in duplicates. EC50 values were determined from a three-parameter logistic regression model with the least squares fit using GraphPad Prism version 7.

β-Klotho/FGFR complex = test: Elk1-luciferase reporter assay in HEK293T reporter cells transiently transfected with full-length WT β-Klotho; format: cell-based, human; conditions: 6 h treatment, mean ± SD of three independent experiments, read-out: EC50, stimulation of Elk1-luciferase reporter activity (KLB WT)
Description: To measure the signaling activity of β-Klotho mutants, ELK luciferase assay was performed in HEK293T cells that were stably transfected with reporter constructs containing 5 × UAS upstream of luciferase and Gal4 DNA-binding domain fused to ELK1. Briefly, HEK293T reporter cells were maintained in DMEM supplemented with 10% (v/v) FBS (Gibco) and 2 mM GlutaMax (Gibco) in a 37 °C incubator with 5% CO2. Cells were plated on 96-well plates in growth medium and incubated overnight. The next day, cells were transfected with expression vectors encoding full-length β-Klotho WT or mutants using the Lipofectamine 2000 transfection reagent (Invitrogen) according to the manufacturer’s protocol. Cells were serum-starved in DMEM supplemented with 5% (v/v) FBS (Gibco) and 2 mM GlutaMax (Gibco) overnight the day after transfection and treated with FGF21 for 6 hours at 37 °C with 5% CO2, after which the cells were lysed in Bright-Glo luciferase reagent (Promega). Luciferase activity was measured in relative luminescence units on the EnVision Multilabel Plate Reader (PerkinElmer) according to the manufacturer’s instructions. All assays were performed in duplicates. EC50 values were determined from a three-parameter logistic regression model with the least squares fit using GraphPad Prism version 7.

- IC50, competition with FGF21 (FGF21 C-terminal peptides) (β-Klotho): d.n.c
Substance: PQPPDVGSSDALSMVGPSQGRSPSYAS [193P-A]

- EC50 (β-Klotho/FGFR complex; Fig 3D): 2.88 ± 1.43 nM
Substance: FGF19: mature human FGF19 protein, endocrine fibroblast growth factor
- EC50, stimulation of Elk1-luciferase reporter activity (no KLB) ([1]; Fig 3D): d.n.c

- IC50 (β-Klotho; read-out: IC50, competition with FGF21 (FGF21 C-terminal peptides)): 7.3 nM
Substance: PQPPDVGSSDPLSMVGPSQGASPSYAS [203R-A]

- IC50, competition with FGF21 (FGF21 C-terminal peptides) (β-Klotho): d.n.c
Substance: PQPPDAGSSDPLSMVGPSQGRSPSYAS [188V-A]

- EC50 (β-Klotho/FGFR complex; Fig 3A): 0.038 ± 0.024 nM
Substance: FGF1: a prototypical paracrine FGF [reference compound]
- EC50 ([1]; Fig 3A, mean ± SD of three independent experiments, read-out: EC50, stimulation of Elk1-luciferase reporter activity (no KLB)): 0.049 ± 0.037 nM

Reference: publication PMC6056499, “A systematic dissection of sequence elements determining β-Klotho and FGF interaction and signaling” (Scientific Reports, 2018)
